The text below walks through data of ChEMBL document CHEMBL1909046, “DrugMatrix in vitro pharmacology data”.

In assay [1] the target is T1, Interstitial collagenase (Homo sapiens, UniProt P03956).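 Also: MMP-1 enzyme inhibition assay using a peptide substrate; in other assays of this panel Not Active means under 50% inhibition at 10 µM.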
T1 sequence (P03956 whole entry): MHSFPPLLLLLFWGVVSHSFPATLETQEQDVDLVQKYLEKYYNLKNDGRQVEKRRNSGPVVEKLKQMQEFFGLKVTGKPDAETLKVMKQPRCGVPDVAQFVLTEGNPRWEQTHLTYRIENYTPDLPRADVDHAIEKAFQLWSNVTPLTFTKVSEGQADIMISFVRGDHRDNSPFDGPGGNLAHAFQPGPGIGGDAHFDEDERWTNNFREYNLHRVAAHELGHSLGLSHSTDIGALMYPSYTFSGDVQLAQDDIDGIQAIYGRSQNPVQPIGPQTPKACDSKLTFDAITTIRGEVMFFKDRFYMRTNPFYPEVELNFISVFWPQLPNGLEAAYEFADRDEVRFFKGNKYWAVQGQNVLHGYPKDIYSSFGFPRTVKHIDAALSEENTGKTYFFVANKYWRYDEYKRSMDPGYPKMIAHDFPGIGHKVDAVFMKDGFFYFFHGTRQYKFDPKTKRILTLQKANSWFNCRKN
It is filed as tissue-based, Rheumatoid synovial fibroblasts.

Assay [2] can be described thus: DRUGMATRIX: Interleukin IL-1 radioligand binding (ligand: [125I] interleukin 1beta). It is filed as cell membranes, Membrane. The following applies: nih3t3; Not Active = under 50% inhibition at 10 µM.
In assay [3] the target is T2, Alpha-1A adrenergic receptor (Rattus norvegicus, UniProt P43140).
T2 sequence (P43140 whole entry): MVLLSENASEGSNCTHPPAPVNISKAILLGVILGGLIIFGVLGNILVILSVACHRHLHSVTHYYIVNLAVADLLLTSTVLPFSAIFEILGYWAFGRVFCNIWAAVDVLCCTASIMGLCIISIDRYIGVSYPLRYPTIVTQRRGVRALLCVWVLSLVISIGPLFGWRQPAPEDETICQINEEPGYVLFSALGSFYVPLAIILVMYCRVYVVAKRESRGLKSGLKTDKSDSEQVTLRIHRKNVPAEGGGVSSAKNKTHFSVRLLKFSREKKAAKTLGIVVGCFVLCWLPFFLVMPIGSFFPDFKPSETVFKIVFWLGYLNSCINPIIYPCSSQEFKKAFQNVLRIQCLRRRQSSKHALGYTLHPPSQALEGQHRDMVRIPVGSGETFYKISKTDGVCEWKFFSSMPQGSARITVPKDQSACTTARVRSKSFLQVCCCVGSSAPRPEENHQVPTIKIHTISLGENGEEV
Nature of the assay: DRUGMATRIX: Alpha-1A adrenergic receptor radioligand binding (ligand: prazosin). It is filed as cell membranes, Wistar, Submaxillary gland, Membrane. The note with it: Not Active = under 50% inhibition at 10 µM.

In assay [4] the target is Adenosine receptor A2a (Homo sapiens, UniProt P29274). Nature of the assay: DRUGMATRIX: Adenosine A2A radioligand binding (ligand: […]). Type of assay: cell membranes, HEK293, Membrane. The following applies: hek293; Not Active = under 50% inhibition at 10 µM.
For assay [5], the target named is T3, 3-hydroxy-3-methylglutaryl-coenzyme A reductase (Homo sapiens, UniProt P04035).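 Also: enzyme inhibition assay of HMG-CoA reductase using radiolabeled [14C]HMG-CoA as substrate; in other assays of this panel Not Active means under 50% inhibition at 10 µM.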
T3 sequence (P04035 whole entry): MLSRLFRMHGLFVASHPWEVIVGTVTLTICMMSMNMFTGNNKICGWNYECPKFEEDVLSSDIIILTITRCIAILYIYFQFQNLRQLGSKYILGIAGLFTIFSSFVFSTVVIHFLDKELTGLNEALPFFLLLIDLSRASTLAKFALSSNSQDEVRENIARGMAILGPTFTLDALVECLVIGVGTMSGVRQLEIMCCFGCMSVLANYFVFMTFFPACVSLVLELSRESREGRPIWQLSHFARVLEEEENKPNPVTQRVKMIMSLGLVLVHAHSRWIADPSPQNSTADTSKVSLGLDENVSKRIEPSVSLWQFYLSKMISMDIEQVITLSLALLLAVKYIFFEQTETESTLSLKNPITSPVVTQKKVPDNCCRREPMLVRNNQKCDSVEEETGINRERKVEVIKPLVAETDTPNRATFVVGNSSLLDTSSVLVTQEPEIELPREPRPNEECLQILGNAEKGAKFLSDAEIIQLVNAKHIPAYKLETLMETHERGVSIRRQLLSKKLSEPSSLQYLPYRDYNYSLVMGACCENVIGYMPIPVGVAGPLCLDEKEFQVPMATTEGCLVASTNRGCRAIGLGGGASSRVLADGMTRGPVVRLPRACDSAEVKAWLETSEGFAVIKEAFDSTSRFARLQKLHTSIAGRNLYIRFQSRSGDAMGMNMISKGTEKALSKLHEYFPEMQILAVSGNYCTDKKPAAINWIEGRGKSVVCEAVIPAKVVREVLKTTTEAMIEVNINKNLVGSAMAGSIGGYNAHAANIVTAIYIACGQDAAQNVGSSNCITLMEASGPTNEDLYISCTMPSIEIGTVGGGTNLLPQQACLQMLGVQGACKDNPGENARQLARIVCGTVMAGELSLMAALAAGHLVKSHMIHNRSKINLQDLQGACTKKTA
Set-up: species or system Escherichia coli.

A short description of assay [6]: DRUGMATRIX: Atrial Natriuretic Factor (ANF) radioligand binding (ligand: [125I] ANF (rat)). Type of assay: cell membranes, Cavia porcellus, Dunkin-Hartley, Adrenal gland, Membrane. The note with it: Not Active = under 50% inhibition at 10 µM.
A short description of assay [7]: DRUGMATRIX: Calcium Channel Type L, Benzothiazepine radioligand binding (ligand: [3H] Diltiazem). It is filed as cell membranes, Rattus norvegicus, Wistar, Brain, Membrane. The following applies: Not Active = under 50% inhibition at 10 µM.

Adenosine receptor A2a, sequence (P29274 whole entry): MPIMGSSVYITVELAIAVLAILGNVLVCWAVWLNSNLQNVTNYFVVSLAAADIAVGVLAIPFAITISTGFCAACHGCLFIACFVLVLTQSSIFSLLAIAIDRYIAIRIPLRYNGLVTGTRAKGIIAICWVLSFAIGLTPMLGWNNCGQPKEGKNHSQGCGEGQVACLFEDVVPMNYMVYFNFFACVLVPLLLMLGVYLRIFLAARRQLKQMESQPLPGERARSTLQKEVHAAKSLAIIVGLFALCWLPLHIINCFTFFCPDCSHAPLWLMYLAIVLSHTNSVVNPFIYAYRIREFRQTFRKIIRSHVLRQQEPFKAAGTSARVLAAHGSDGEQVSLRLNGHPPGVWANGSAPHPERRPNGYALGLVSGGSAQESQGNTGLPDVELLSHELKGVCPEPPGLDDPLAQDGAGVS

The term IC50 denotes the concentration at which inhibition is half-maximal. Broadly, the Ki is the equilibrium dissociation constant of an inhibitor or competing ligand from its target. For `CN(C(=O)CCCOc1ccc2[nH]c(=O)ccc2c1)C1CCCCC1` [CILOSTAMIDE], the IC50 entry in assay [1], in assay [2], in assay [3], in assay [4], in assay [5] and in assay [6] was “Not Active” throughout. For the same compound, the IC50 entry in assay [7] is listed as “Not Active”. For the same compound, the Ki result in assay [2], in assay [6] and in assay [7] was “Not Active” throughout.
Regarding `CC(C)(Oc1ccc(C2CC2(Cl)Cl)cc1)C(=O)O` (stereo not given) [CIPROFIBRATE], the IC50 entry in assay [1], in assay [2], in assay [3], in assay [4], in assay [5] and in assay [6] was “Not Active” throughout. Moreover, the IC50 result in assay [7] was “Not Active”. For the same compound, the Ki entry in assay [2], in assay [6] and in assay [7] was “Not Active” in each case.
For `Nc1nc(Cl)nc2c1ncn2[C@H]1C[C@H](O)[C@@H](CO)O1` [CLADRIBINE], the IC50 entry in assay [1], in assay [2], in assay [3], in assay [4], in assay [5] and in assay [6] was “Not Active” in each case. In addition, the IC50 result in assay [7] is given as “Not Active”. Moreover, the Ki result in assay [2], in assay [6] and in assay [7] was “Not Active” throughout.
With `CC[C@H]1OC(=O)[C@H](C)[C@@H](O[C@H]2C[C@@](C)(OC)[C@@H](O)[C@H](C)O2)[C@H](C)[C@@H](O[C@@H]2O[C@H](C)C[C@H](N(C)C)[C@H]2O)[C@](C)(OC)C[C@@H](C)C(=O)[C@H](C)[C@@H](O)[C@]1(C)O` [CLARITHROMYCIN], the IC50 entry in assay [1], in assay [2], in assay [3], in assay [4], in assay [5] and in assay [6] was “Not Active” in each case. Besides, the IC50 entry in assay [7] is given as “Not Active”. Also, the Ki result in assay [2], in assay [6] and in assay [7] was “Not Active” each time.
In the case of `CCC[C@@H]1C[C@@H](C(=O)N[C@@H]([C@H]2O[C@H](SC)[C@H](O)[C@@H](O)[C@H]2O)[C@H](C)Cl)N(C)C1` [CLINDAMYCIN], the IC50 result in assay [1], in assay [2], in assay [3], in assay [4], in assay [5] and in assay [6] was “Not Active” throughout. Besides, the IC50 result in assay [7] is “Not Active”. For the same compound, the Ki result in assay [2], in assay [6] and in assay [7] was “Not Active” each time.
As to `O=C(O)c1cc(=O)c2c(OCC(O)COc3cccc4oc(C(=O)O)cc(=O)c34)cccc2o1` [CROMOLYN], the IC50 result in assay [1], in assay [2], in assay [3], in assay [4], in assay [5] and in assay [6] was “Not Active” each time. Besides, the IC50 result in assay [7] was “Not Active”. Besides, the Ki result in assay [2], in assay [6] and in assay [7] was “Not Active” throughout.
Consider `O=P1(N(CCCl)CCCl)NCCCO1` (stereo not given) [CYCLOPHOSPHAMIDE ANHYDROUS], for which the IC50 result in assay [1], in assay [2], in assay [3], in assay [4], in assay [5] and in assay [6] was “Not Active” throughout. Moreover, in assay [7], the IC50 result is reported as “Not Active”. Moreover, the Ki result in assay [2], in assay [6] and in assay [7] was “Not Active” in each case.
Turning to `CC(=O)O[C@]1(C(C)=O)CC[C@H]2[C@@H]3C=C(Cl)C4=CC(=O)[C@@H]5C[C@@H]5[C@]4(C)[C@H]3CC[C@@]21C` [CYPROTERONE ACETATE], the IC50 result in assay [1], in assay [2], in assay [3], in assay [4], in assay [5] and in assay [6] was “Not Active” in each case. In assay [7], the IC50 entry is recorded as “Not Active”. Also, the Ki entry in assay [2], in assay [6] and in assay [7] was “Not Active” in each case.
As to `Nc1nc(N)nc(NC2CC2)n1` [CYROMAZINE], the IC50 result in assay [1], in assay [2], in assay [3], in assay [4], in assay [5] and in assay [6] was “Not Active” in each case. For the same compound, the IC50 result in assay [7] is “Not Active”. Moreover, the inhibition constant Ki result in assay [2], in assay [6] and in assay [7] was “Not Active” each time.
With `C#C[C@]1(O)CC[C@H]2[C@@H]3CCC4=Cc5oncc5C[C@]4(C)[C@H]3CC[C@@]21C` [DANAZOL], the IC50 result in assay [1], in assay [2], in assay [3], in assay [4], in assay [5] and in assay [6] was “Not Active” in each case. In addition, the IC50 in assay [7] (read-out: IC50) came out at 14.6 µM. Also, the figures for the Ki result in assay [2], in assay [6] and in assay [7] (read-out: Ki) were “Not Active”, “Not Active” and 13 µM, respectively.
In the case of `CCN[C@@H](C)Cc1cccc(C(F)(F)F)c1` [DEXFENFLURAMINE], the IC50 result in assay [1], in assay [2], in assay [3], in assay [4], in assay [5] and in assay [6] was “Not Active” each time. The IC50 result in assay [7] is on record as “Not Active”. Moreover, the Ki result in assay [2], in assay [6] and in assay [7] was “Not Active” throughout.
Turning to `C[C@H](C(=O)O)c1cccc(C(=O)c2ccccc2)c1` [DEXKETOPROFEN], the IC50 entry in assay [1], in assay [2], in assay [3], in assay [4], in assay [5] and in assay [6] was “Not Active” throughout. Further, the concentration for half-maximal inhibition (IC50) entry in assay [7] is on record as “Not Active”. Further, the Ki entry in assay [2], in assay [6] and in assay [7] was “Not Active” each time.
As to `CN1C(=O)CN=C(c2ccccc2)c2cc(Cl)ccc21` [DIAZEPAM], the IC50 result in assay [1], in assay [2], in assay [3], in assay [4], in assay [5] and in assay [6] was “Not Active” each time. Further, the IC50 result in assay [7] was “Not Active”. Also, the Ki result in assay [2], in assay [6] and in assay [7] was “Not Active” in each case.
